What was measured:
Test in all cases: NCI 60 cell line screen
PC-3 = format: cell-based, human; conditions: for activity at 10 µM: Homo sapiens, PC-3, Prostate Cancer, read-out: Percent growth
Description: (§1) Anticancer profiling over a panel of 60 cancer cell lines was carried out at the National Cancer Institute (NCI), Bethesda, Maryland, USA, https://dtp.cancer.gov/discovery_development/nci-60/methodology.htm (Last visit 22 September 2021), using the standard procedure (detailed procedure is located in the Supplementary Information page 50 s).
(§2) NCI standard procedure for 60 cell lines assay
(§3) The human tumor cell lines of the cancer screening panel are grown in RPMI 1640 mediu m containing 5% fetal bovine serum and 2 mM L-glutamine. For a typical screening experiment, cells are inoculated into 96 well microtiter plates in 100 μL at plating densities ranging from 5,000 to 40,000 cells/well depending on the doubling time of individual cell lines. After cell inoculation, the microtiter plates are incubated at 37° C, 5 % CO2, 95 % air and 100 % relative humidity for 24 h prior to addition of experimental drugs.
(§4) After 24 h, two plates of each cell line are fixed in situ with TCA, to represent a measurement of the cell population for each cell line at the time of drug addition (Tz). Experimental drugs are solubilized in dimethyl sulfoxide at 400-fold the desired final maximum test concentration (10 µM) and stored frozen prior to use. At the time of drug addition, an aliquot of frozen concentrate is thawed and diluted to twice the desired final maximum test concentration with co mp lete medium containing 50 μg/ml gentamicin. Additional four, 10-fold or ½ log serial dilutions are made to provide a total of five drug concentrations plus control. Aliquots of 100 μl of these different drug dilutions are added to the appropriate microtiter wells already containing 100 μl of medium, resulting in the required final drug concentrations.
(§5) Following drug addition, the plates are incubated for an additional 48 h at 37°C, 5 % CO2, 95 % air, and 100 % relative humidity. For adherent cells, the assay is terminated by the addition of cold TCA. Cells are fixed in situ by the gentle addition of 50 μl of cold 50 % (w/v) TCA (final concentration, 10 % TCA) and incubated for 60 minutes at 4°C. The supernatant is discarded, and the plates are washed five times with tap water and air dried. Sulforhodamine B (SRB) solution (100 μl) at 0.4 % (w/v) in 1 % acetic acid is added to each well, and plates are incubated for 10 minutes at room temperature. After staining, unbound dye is removed by washing five times with 1 % acetic acid and the plates are air dried. Bound stain is subsequently solubilized with 10 mM trizma base, and the absorbance is read on an automated plate reader at a wavelength of 515 nm. For suspension cells, the methodology is the same except that the assay is terminated by fixing settled cells at the bottom of the wells by g ently adding 50 μl of 80 % TCA (final concentration, 16 % TCA). Using the seven absorbance measurements [time zero, (Tz), control growth, (C), and test growth in the presence of drug at the five concentration levels (Ti)], the percentage growth is calculated at each of the drug concentrations levels. Percentage growth inhibition is calculated as:
(§6) [(Ti-Tz)/(C-Tz)] x 100 for concentrations for which Ti>/=Tz
(§7) [(Ti-Tz)/Tz] x 100 for concentrations for which Ti<Tz.
(§8) Three dose response parameters are calculated for each experimental agent. Growth inhibition of […]
(§9) resulting in a 50% reduction in the net protein increase (as measured by SRB staining) in control cells during the drug incubation. The drug concentration resulting in total growth inhibition […]
(§10) (TGI) is calculated from Ti = Tz.

NCI-H522 = format: cell-based, human; conditions: Homo sapiens; NCI-H522, Non-Small Cell Lung Cancer; read-out: Percent growth
Description: as §1, §2, §3, §4, §5, §6, §7, §8, §9, §10

RXF 393 = format: cell-based, human; conditions: for activity at 10 µM: Homo sapiens, RXF 393, Renal Cancer, read-out: Percent growth
Description: as §1, §2, §3, §4, §5, §6, §7, §8, §9, §10

UO-31 = format: cell-based, human; conditions: for activity at 10 µM: Homo sapiens, UO-31, Renal Cancer, read-out: Percent growth
Description: as §1, §2, §3, §4, §5, §6, §7, §8, §9, §10

SR = format: cell-based, human; conditions: for activity at 10 µM: Homo sapiens, Leukemia, read-out: Percent growth
Description: as §1, §2, §3, §4, §5, §6, §7, §8, §9, §10

SNB-75 = format: cell-based, human; conditions: for activity at 10 µM: Homo sapiens, SNB-75, CNS-Cancer, read-out: Percent growth
Description: as §1, §2, §3, §4, §5, §6, §7, §8, §9, §10

HOP-92 = format: cell-based, human; conditions: for activity at 10 µM: Homo sapiens, HOP-92, Non-Small Cell Lung Cancer, read-out: Percent growth; for percent inhibition: HOP-92, NCI-60 heat map analysis
Description: as §1, §2, §3, §4, §5, §6, §7, §8, §9, §10

SF-295 = format: cell-based, human; conditions: for activity at 10 µM: Homo sapiens, SF-295, CNS-Cancer, read-out: Percent growth
Description: as §1, §2, §3, §4, §5, §6, §7, §8, §9, §10

EKVX = format: cell-based, human; conditions: Homo sapiens, Non-Small Cell Lung Cancer, read-out: Percent growth
Description: as §1, §2, §3, §4, §5, §6, §7, §8, §9, §10

NCI/ADR-RES = format: cell-based, human; conditions: for activity at 10 µM: Homo sapiens, Ovarian Cancer, read-out: Percent growth
Description: as §1, §2, §3, §4, §5, §6, §7, §8, §9, §10

NCI-H23 = format: cell-based, human; conditions: for activity at 10 µM: Homo sapiens, NCI-H23, Non-Small Cell Lung Cancer, read-out: Percent growth
Description: as §1, §2, §3, §4, §5, §6, §7, §8, §9, §10

MCF7 = format: cell-based; conditions: Homo sapiens; MCF7, Breast Cancer; read-out: Percent growth
How it was run: (§11)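 SRB read-out (515 nm) after 48 h drug exposure, 37 °C, RPMI 1640/5% FBS; five-point dilution series, top conc. 10 µM. Percent growth from Tz, control and treated absorbances; GI50 and TGI derived.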

A498 = format: cell-based; conditions: Homo sapiens; A498, Renal Cancer; read-out: Percent growth
How it was run: as §11

SW-620 = format: cell-based; conditions: Homo sapiens; SW-620, Colon Cancer; read-out: Percent growth
How it was run: as §11

786-0 = format: cell-based; conditions: Homo sapiens; 786-0, Renal Cancer; read-out: Percent growth
How it was run: as §11

SF-539 = format: cell-based; conditions: Homo sapiens; SF-539, CNS-Cancer; read-out: Percent growth
How it was run: as §11

SK-MEL-28 = format: cell-based; conditions: Homo sapiens; SK-MEL-28, Melanoma; read-out: Percent growth
How it was run: as §11

COLO 205 = format: cell-based; conditions: Homo sapiens; COLO 205, Colon Cancer; read-out: Percent growth
How it was run: as §11

HS 578T = format: cell-based; conditions: Homo sapiens, Breast Cancer, read-out: Percent growth
How it was run: as §11

HCT-116 = format: cell-based; conditions: Homo sapiens; HCT-116, Colon Cancer; read-out: Percent growth
How it was run: as §11

HCC-2998 = format: cell-based; conditions: Homo sapiens; HCC-2998, Colon Cancer; read-out: Percent growth
How it was run: as §11

Row | SMILES | activity at 10 µM (PC-3) [%] | activity at 10 µM (NCI-H522) [%] | activity at 10 µM (RXF 393) [%] | activity at 10 µM (UO-31) [%] | activity at 10 µM (SR) [%] | activity at 10 µM (SNB-75) [%] | activity at 10 µM (HOP-92) [%] | activity at 10 µM (SF-295) [%] | activity at 10 µM (EKVX) [%] | activity at 10 µM (NCI/ADR-RES) [%] | activity at 10 µM (NCI-H23) [%] | activity at 10 µM (MCF7) [%] | activity at 10 µM (A498) [%] | activity at 10 µM (SW-620) [%] | activity at 10 µM (786-0) [%] | activity at 10 µM (SF-539) [%] | activity at 10 µM (SK-MEL-28) [%] | activity at 10 µM (COLO 205) [%] | activity at 10 µM (HS 578T) [%] | activity at 10 µM (HCT-116) [%] | further results
1 | O=S(=O)(NCCNc1nccc(-n2cnc3ccccc32)n1)c1ccc(Br)cc1 [12d, N-(2-((4-(1H-benzo [d]imidazol-1-yl)pyrimidin-2-yl)amino)ethyl)-4-bromobenzenesulfonamide] | 93.8 | 87.2 | 101 | 79.8 | 75.1 | 74.1 | 74.2 | 96.5 | 83.4 | 97.6 | 97.3 | 78.4 | 76.3 | 110 | 103 | 96.2 | 108 | 107 | 85.7 | 99.8 | activity at 10 µM (HCC-2998): 103%
2 | O=S(=O)(NCCCNc1nccc(-n2cnc3ccccc32)n1)c1cccc2ccccc12 [12n, N-(3-((4-(1H-benzo [d]imidazol-1-yl)pyrimidin-2-yl)amino)propyl)naphthalene-1-sulfonamide] | 66.7 | 70 | 105 | 60.7 | 75.4 | 87.2 | 80.2 | 81.2 | 75.1 | 81.1 | 91.3 | 83.4 | 72.1 | 106 | 91.2 | 87.9 | 103 | 96.4 | 78.3 | 75.9 | activity at 10 µM (HCC-2998): 112%
3 | O=S(=O)(NCCNc1nccc(-n2cnc3ccccc32)n1)c1ccc(C(F)(F)F)cc1 [12e, N-(2-((4-(1H-benzo [d]imidazol-1-yl)pyrimidin-2-yl)amino)ethyl)-4-(trifluoromethyl)benzenesulfonamide] | 45.5 | 38.2 | 38.2 | 39.9 | 35.5 | 46.8 | 54.5 | 44.7 | 34.7 | 55.9 | 54.5 | 34.9 | 56.6 | 83.5 | 69.7 | 64.8 | 77.2 | 64.9 | 42.9 | 40.1 | percent inhibition (PC-3; PC-3, NCI-60 heat map analysis): 55%; percent inhibition (SR; NCI-60 heat map analysis): 65%; percent inhibition (SNB-75; SNB-75, NCI-60 heat map analysis): more than 50%; percent inhibition (HOP-92): around 40%; percent inhibition (SF-295; SF-295, NCI-60 heat map analysis): more than 50%; percent inhibition (NCI/ADR-RES; NCI-60 heat map analysis): 45%; percent inhibition (NCI-H23; NCI-H23, NCI-60 heat map analysis): around 40%; activity at 10 µM (HCC-2998): 80.5%
4 | O=S(=O)(NCCCNc1nccc(-n2cnc3ccccc32)n1)c1ccc(C(F)(F)F)cc1 [12l, N-(3-((4-(1H-benzo [d]imidazol-1-yl)pyrimidin-2-yl)amino)propyl)-4-(trifluoromethyl) benzenesulfonamide] | 59 | 66.9 | 43.8 | 54.4 | 58 | 65.2 | 56 | 69.8 | 58.1 | 55.8 | 82.5 | 65.5 | 55.3 | 99.5 | 77.2 | 74.5 | 103 | 78.2 | 58.6 | 65.6 | percent inhibition (RXF 393; RXF 393, NCI-60 heat map analysis): 57%; percent inhibition (UO-31; UO-31, NCI-60 heat map analysis): 46%; percent inhibition (HOP-92): around 40%; activity at 10 µM (HCC-2998): 84.8%
5 | COc1ccc(S(=O)(=O)NCCCNc2nccc(-n3cnc4ccccc43)n2)cc1 [12m, N-(3-((4-(1H-benzo [d]imidazol-1-yl)pyrimidin-2-yl)amino)propyl)-4-methoxy benzenesulfonamide] | 89.7 | 81.1 | 80.6 | 67.2 | 77.6 | 88.2 | 75.8 | 90.5 | 84.4 | 105 | 91.9 | 85.1 | 81.9 | 104 | 95.9 | 83.9 | 106 | 108 | 84.8 | 89.9 | activity at 10 µM (HCC-2998): 111%
6 | O=S(=O)(NCCCNc1nccc(-n2cnc3ccccc32)n1)c1ccccc1 [12h, N-(3-((4-(1H-benzo [d]imidazol-1-yl)pyrimidin-2-yl)amino)propyl)benzenesulfonamide] | 89.2 | 82.7 | 110 | 75.3 | 80 | 89.7 | 84.8 | 92.5 | 88.9 | 86.2 | 91.8 | 87.7 | 78.4 | 107 | 98.8 | 89.4 | 105 | 102 | 93.7 | 90.3 | activity at 10 µM (HCC-2998): 107%
